The source of these data is EP1156056A1, “5-GLYCOSYLOXY-6-HYDROXYNAPHTHO 2,3-f]QUINOLINE-7,12-DIONE HAVING ANTICANCER ACTIVITIES” (ZAIDAN HOJIN BISEIBUTSU KAGAKU KENKYU KAI, priority 1999, dated 2000).

In brackets after ≈: the same amount, converted by molar mass. Read-outs that look alike come from different tables or passages of the source.

The subject of data set [1] is all human cancer cells as tested. In words: Inhibition of proliferation of cancer cells in culture, all human cancer cells as tested. Type of data set: cell-based. Here is the method: (§1) A culture medium for cancer cells was put into test tubes. To the culture medium in each tube, there was transplanted each of such various mouse cancer cells or human cancer cells as shown in Table 1 below. The cells so transplanted were cultivated under the conditions at 37°C in an air atmosphere containing 5 % CO2. To the medium containing the cancer cells so cultivated, there was added said Compounds A, B, D, E or F of this invention at different concentrations, as the test compound. […] As the comparative compound, adriamycin now clinically used was tested to repeat the test in the same way.
Namely, they are mouse colon cancer (colon 26), mouse B-cell lymphoma (LB32T), mouse lymphoma (L-1210), human cervical cancer (HeLa), human acute promyeloleukemia (HL60), human prostatic cancer (PC3), human pudendal squamous cell carcinoma (A431), human pulmonary carcinoma (PC6), human mastocarcinoma (MCF7), human esophageal carcinoma (TT), human prostatic cancer (LNcap) and human colon cancer (DLD-1). […]

Data set [2] has as its system human acute promyeloleukemia (HL60). Kind of data set: Inhibition of proliferation of cancer cells in culture (Test Examples 1 and 3). The data set is classed as cell-based. As to the method: as §1
(§2) Namely, they are mouse colon cancer (colon 26), mouse B-cell lymphoma (LB32T), mouse lymphoma (L-1210), human cervical cancer (HeLa), human acute promyeloleukemia (HL60), human prostatic cancer (PC3), human pudendal squamous cell carcinoma (A431), human pulmonary carcinoma (PC6), human mastocarcinoma (MCF7), human esophageal carcinoma (TT), human prostatic cancer (LNcap) and human colon cancer (DLD-1).
(§3) The test method and the nature of cancer cells to be tested are the same as those in Test Example 1 given hereinbefore. In this Test Example 3, however, eight kinds of cancer cells indicated in Table 3 below are used, among the twelve kinds of cancer cells which were used in Test Example 1.
(§4) As the test results of measurement, the evaluated values of the concentration of each test compound which could inhibit the proliferation of cancer cells by 50 % (namely, 50 % inhibitory concentration:IC50, µg/ml) are given in Table 3.

In data set [3] the test system is mouse colon cancer (colon 26). The description is as above. Type of data set: cell-based. Here is the method:
as §1, §2, §3, §4

The next data set concerns mouse lymphoma (L-1210). The data set is described as above. The data set is classed as cell-based. As to the method:
as §1, §2, §3, §4

Data set [4] deals with human colon cancer (DLD-1). The description is as above. Type of data set: cell-based. The conditions noted are these: for IC50: Homo sapiens. As to the method: as §1, §2, §3, §4
Data set [5] relates to human prostatic cancer (LNcap). The data set is described as above. Type of data set: cell-based. Here is the method: as §1, §2, §3, §4
The test system of data set [6] is human prostatic cancer (PC3). Described as above. Type of data set: cell-based. The conditions noted are these: for IC50: Homo sapiens. Here is the method:
as §1, §2, §3, §4

In data set [7] the test system is human cervical cancer (HeLa). Described as above. The data set is classed as cell-based. As to the method: as §1, §2, §3, §4
Data set [8] relates to mouse B-cell lymphoma (LB32T). Described as above. The data set is classed as cell-based. As to the method:
as §1, §2, §3, §4

Data set [9] relates to human mastocarcinoma (MCF7). In words: Inhibition of proliferation of cancer cells in culture (Test Example 1). Type of data set: cell-based. The conditions noted are these: 72 hours cultivation, read-out: Concentration of test compound to inhibit the proliferation of cancer cells by 50 %. Here is the method:
as §1, §2

Data set [10] concerns human pudendal squamous cell carcinoma (A431). The description is as above. The data set is classed as cell-based. The conditions noted are these: A-431, 72 hours cultivation, read-out: Concentration of test compound to inhibit the proliferation of cancer cells by 50 %. Here is the method: as §1, §2
The test system of data set [11] is human esophageal carcinoma (TT). Described as above. The data set is classed as cell-based. The conditions noted are these: 72 hours cultivation, read-out: Concentration of test compound to inhibit the proliferation of cancer cells by 50 %. As to the method:
as §1, §2

Data set [12] deals with human pulmonary carcinoma (PC6). The data set is described as above. The data set is classed as cell-based. The conditions noted are these: 72 hours cultivation, read-out: Concentration of test compound to inhibit the proliferation of cancer cells by 50 %. As to the method: as §1, §2
For another data set, the system named is ICR mice. In words: Acute toxicity in mice, survival after intraperitoneal administration (Test Example 2). As to the method:
In this Test Example, the acute toxicity of Compound A of this invention as administered to mice was evaluated. […] By way of comparison, similar test was carried out with adriamycin (in the form of hydrochloride) .

Where [13] appears, read: HL-60, 72 hours cultivation, Test Example 1, read-out: Concentration of test compound to inhibit the proliferation of cancer cells by 50 %, IC50.
[14] abbreviates: colon26, 72 hours cultivation, Test Example 1, read-out: Concentration of test compound to inhibit the proliferation of cancer cells by 50 %, IC50.
The mark [15] stands for this setting: L1210, 72 hours cultivation, Test Example 1, read-out: Concentration of test compound to inhibit the proliferation of cancer cells by 50 %, IC50.
Setting [16] is: 72 hours cultivation, Test Example 1, read-out: Concentration of test compound to inhibit the proliferation of cancer cells by 50 %, IC50.
[17] abbreviates: Test Example 3, Compounds N to T used as trifluoroacetate, read-out: IC50.
Where [18] appears, read: LNcap, 72 hours cultivation, Test Example 1, read-out: Concentration of test compound to inhibit the proliferation of cancer cells by 50 %, IC50.
The mark [19] stands for this setting: Test Example 1, relative to adriamycin.
Setting [20] is: ICR, mouse, in vivo, ip, 14 days.

For the compound `COc1c2c(c3cccnc3c1O[C@@H]1O[C@@H](C)[C@@H](O)[C@@H](O)[C@H]1F)C(=O)c1ccccc1C2=O` [5-(2,6-dideoxy-2-fluoro-α-L-talopyranosyloxy)-6-methoxy-naphtho[2,3-f]-quinoline-7,12-dione], in data set [1], the IC50 was less than 100 µg/mL and the anticancer activity result is recorded as “does not exhibit any appreciable anticancer activity”.

As for `COc1cccc2c1C(=O)c1c(O)c3c(c(O)c1C2=O)C[C@@](O)(C(=O)CO)C[C@@H]3O[C@H]1C[C@H](N)[C@H](O)[C@H](C)O1` [Adriamycin, reference compound], the IC50 was found to be 0.03 µg/mL (≈ 0.0552 µM) in [2] (setting [13]); 0.03 µg/mL (≈ 0.0552 µM) in data set [2] (HL-60, Test Example 3, Compounds N to T used as trifluoroacetate, read-out: IC50); 0.09 µg/mL (≈ 0.166 µM) in data set [3] (Colon26, Test Example 3, Compounds N to T used as trifluoroacetate, read-out: IC50); 0.07 µg/mL (≈ 0.129 µM) in data set [3] (setting [14]); 0.24 µg/mL (≈ 0.442 µM) in the data set on mouse lymphoma (L-1210) (setting [15]); 0.38 µg/mL (≈ 0.699 µM) in the data set with mouse lymphoma (L-1210) (L1210, Test Example 3, Compounds N to T used as trifluoroacetate, read-out: IC50). Moreover, the IC50 in data set [4] (setting [16]) came out at 1.9 µg/mL (≈ 3.5 µM); in data set [4] (setting [17]), 3.4 µg/mL (≈ 6.26 µM); in [5] (LNCap, Test Example 3, Compounds N to T used as trifluoroacetate, read-out: IC50), 0.1 µg/mL (≈ 0.184 µM); in data set [5] (setting [18]), 0.07 µg/mL (≈ 0.129 µM); in data set [6] (setting [16]), 0.9 µg/mL (≈ 1.66 µM); in [6] (setting [17]), 1.14 µg/mL (≈ 2.1 µM). For the same compound, the IC50 in data set [7] (setting [16]) came to 0.06 µg/mL (≈ 0.11 µM); in data set [7] (setting [17]), 0.06 µg/mL (≈ 0.11 µM); in data set [8] (setting [16]) it was 0.03 µg/mL (≈ 0.0552 µM); in data set [8] (setting [17]) it was 0.04 µg/mL (≈ 0.0736 µM); in [9] it was 1.02 µg/mL (≈ 1.88 µM); in [10], 1.33 µg/mL (≈ 2.45 µM). The IC50 in data set [11] was found to be 1.38 µg/mL (≈ 2.54 µM); in [12] it was 1.01 µg/mL (≈ 1.86 µM). Further, in the data set on ICR mice (ICR mice, intraperitoneal, 14 days), the “dosage at which the total number of mice survived for 14 days” value is 0.125 mg/mouse. For the same compound, the “Survival day(s) of respective mice” value in the data set with ICR mice (ICR mice, intraperitoneal, dosage 0.125 mg/mouse, 4 mice per group, observed 14 days) is reported as >14 (all mice) day(s).

Regarding `C[C@@H]1O[C@@H](Oc2c(O)c3c(c4cccnc24)C(=O)c2ccccc2C3=O)[C@H](F)[C@H](O)[C@@H]1O` [Compound A, 5-(2,6-dideoxy-2-fluoro-α-L-talopyranosyloxy)-6-hydroxynaphtho[2,3-f]quinoline-7,12-dione], the IC50 was 0.36 µg/mL (≈ 0.819 µM) in data set [2] (setting [13]); 0.32 µg/mL (≈ 0.728 µM) in [3] (setting [14]); 0.59 µg/mL (≈ 1.34 µM) in the data set with mouse lymphoma (L-1210) (setting [15]); 0.12 µg/mL (≈ 0.273 µM) in data set [4] (setting [16]); 0.28 µg/mL (≈ 0.637 µM) in [5] (setting [18]); 0.16 µg/mL (≈ 0.364 µM) in data set [6] (setting [16]). Further, the IC50 in [7] (setting [16]) amounted to 0.46 µg/mL (≈ 1.05 µM); in data set [8] (setting [16]), 0.43 µg/mL (≈ 0.979 µM); in data set [9], 2.23 µg/mL (≈ 5.08 µM); in data set [10] it was 3.36 µg/mL (≈ 7.65 µM); in data set [11], 3.16 µg/mL (≈ 7.19 µM); in data set [12], 4.34 µg/mL (≈ 9.88 µM). In data set [4] (setting [19]), the “anticancer activities against DLD-1, times higher than those of adriamycin” value came out at 16 times. The “anticancer activities against PC3, times higher than those of adriamycin” value in [6] (setting [19]) worked out at 5.6 times. Besides, the “Survival day(s) of respective mice” value in the data set on ICR mice (setting [20]) is on record as >14 (all mice) day(s). The “dosage at which the total number of mice survived for 14 days” value with ICR mice (setting [20]) was determined as 4 mg/mouse.
